Earlier results as cited in publication PMC3653137 (Molecular pharmaceutics, 2013).
Residues, ends and D or L forms follow the SMILES beside them.

What was measured:
[1] = system: CCRF-CEM cells; details: [WR]4 alone at similar concentrations
[2] = system: SK-OV-3 cells; details: [WR]4 alone at similar concentrations
[3] = system: HCT-116 cells; details: [WR]4 alone at similar concentrations
[4] = system: BT-20 cells; details: BT-20 human breast carcinoma cells

N=C(N)NCCC[C@@H]1NC(=O)[C@H](Cc2c[nH]c3ccccc23)NC(=O)[C@H](CCCNC(=N)N)NC(=O)[C@H](Cc2c[nH]c3ccccc23)NC(=O)[C@H](CCCNC(=N)N)NC(=O)[C@H](Cc2c[nH]c3ccccc23)NC(=O)[C@H](CCCNC(=N)N)NC(=O)[C@H](Cc2c[nH]c3ccccc23)NC1=O [[WR]4] (cyclo(RWRWRWRW))
cytotoxicity in CCRF-CEM cells [1]: not cytotoxic | cytotoxicity in SK-OV-3 cells [2]: not cytotoxic | cytotoxicity in HCT-116 cells [3]: not cytotoxic

Lys-(CH2)11-Arg-(CH2)11-Arg [LPA4]
fold enhancement of cellular delivery of F′-GpYEEI by the carrier peptide [4]: 10 fold
